{"source": "patent US10253107B2", "about": "“Use of endocytosis inhibitors and antibodies for cancer therapy” (THE UNIVERSITY OF QUEENSLAND, priority 2012, dated 2019)", "key": {"[1]": {"system": "EGFR endocytosis in A431 cells", "experiment": "EGF-Alexa488 uptake immunofluorescence (ligand-induced EGFR endocytosis)", "assay_type": "cell-based, human", "conditions": "15 min EGF-Alexa488 uptake", "description": "(§1) FIG. 23 is a photographic representation showing example panels for correlation between inhibited EGFR endocytosis and MHC class I and class II status. (A) Immunofluorescence showing manipulation of EGFR trafficking using a dynamin inhibitor. A431 cells were serum-starved for 3 hours and then treated with different concentrations of dynasore (0, 60 and 100 μM) for 0.5 and 24 hours. 15 minutes EGF-Alexa488 (100 ng/mL) uptakes were performed to monitor the trafficking of the ligand bound EGFRs (in green). The nuclei are shown in blue. (B) immunofluorescence showing changes in MHC class I and class II distributions caused by altered EGFR trafficking. A431 cells were treated with different concentrations of dynasore (0, 60 and 100 μM) for 0.5 hours, followed by fixation and permeabilization. MHC class I and class II were then labeled with primary antibodies PE-HLA-ABC and PE-HLA-DR, respectively, followed by secondary antibody labeling (Alexa 594). MHC I and II are shown in red while the nuclei are shown in blue.\nFIG. 29 is a photographic representation showing Dyngo4a inhibition of EGFR endocytosis. […] Immunofluorescence was conducted to confirm the manipulation of EGFR trafficking using Dyngo4a. A431 cells were serum-starved for 3 hours and then treated with different concentrations of (A) Dyngo4a (0 and 30 μM) for 30 min. […] The nuclei are shown in blue. […]"}, "A431 cells [2]": {"system": "A431 cells", "experiment": "Dynasore 24 hour treatment, A431 cells", "assay_type": "cell-based, human", "description": "as §1"}, "HeLa cells [3]": {"system": "HeLa cells", "conditions": "dose dependent, previous study (23), read-out: IC50 of dynasore mediated endocytosis inhibition; cited from earlier work"}, "HeLa cells [4]": {"system": "HeLa cells", "experiment": "Dynasore 24 hour treatment, HeLa cells", "assay_type": "cell-based"}, "A431 cells [5]": {"system": "A431 cells", "experiment": "MHC class I and class II immunofluorescence in A431 cells", "assay_type": "cell-based, human", "description": "as §1"}, "A431 cells [6]": {"system": "A431 cells", "experiment": "Flow cytometry-based ADCC assay on A431 cells", "assay_type": "cell-based, human", "conditions": "FACS; for effect of dynamin inhibitor on cetuximab-dependent ADCC of A431 cells: inhibitor + cetuximab + PBMC", "method": "Flow cytometry was performed on triplicate tubes per treatment. Target cells were harvested and labeled with 0.5 μM CFSE (Life technologies) for 10 minutes, followed by washing to remove excess dye. […] 30 μM Dyngo4a was added at given time points as described in figure legends. After the incubation, 5 ul of 7-AAD (BD Pharmingen) was added into each tube to indicate the target cells that were killed. Samples were analyzed by flow cytometry (BD FACSCanto). The percentage of specific target cell death was calculated using the following formula:"}, "KJD cells [7]": {"system": "KJD cells", "experiment": "Flow cytometry-based ADCC assay on KJD cells", "assay_type": "cell-based, human", "conditions": "for effect of dynamin inhibitor on cetuximab-dependent ADCC of KJD cells: inhibitor + cetuximab + PBMC", "method": "Flow cytometry was performed on triplicate tubes per treatment. Target cells were harvested and labeled with 0.5 μM CFSE (Life technologies) for 10 minutes, followed by washing to remove excess dye. […] 30 μM Dyngo4a was added at given time points as described in figure legends. After the incubation, 5 ul of 7-AAD (BD Pharmingen) was added into each tube to indicate the target cells that were killed. Samples were analyzed by flow cytometry (BD FACSCanto)."}, "KJD cells [8]": {"system": "KJD cells", "experiment": "MTS/MTT toxicity assay in the absence of PBMC, KJD", "assay_type": "cell-based", "conditions": "absence of PBMC/ADCC, single agent or with cetuximab", "description": "(§2) FIG. 30 is a graphical representation of a multi-parametric FACS analysis showing that manipulation of EGFR trafficking with dynamin inhibitors, Dyngo4a and Pyrimidyn-7, results in enhanced ADCC in cetuximab-sensitive and insensitive cells. cetuximab-dependent ADCC assays were performed essentially according to the procedures outlined in FIGS. 27 and 28. […] (C) Percentage of specific KJD cell death is shown in the presence of dynamin inhibitors only. […] (E) An MTS assay was conducted in the absence of PBMC to assess toxicity of compounds in the absence of ADCC. […] Triton X100 is added as a control for maximum cell death. (F) An MTS assay was conducted in the absence of PBMC to assess toxicity of compounds in the absence of ADCC. […] Triton X100 is added as a control for maximum cell death. (G) An MTS assay was conducted to assess possible toxicity of dynamin inhibitors to PBMC cells. […] Triton X100 is added as a control for maximum cell death.\n(§3) Compounds Dyngo4a and Pyrimidyn-7 were tested in both multi-variant FACS analysis assay as described in Example 4 and by MTT assay. In particular, compounds were tested for improvement of cetuximab-dependent ADCC against cetuximab-sensitive A431 cells and cetuximab-resistant KJD cells and for single agent toxicity."}, "A431 cells [9]": {"system": "A431 cells", "experiment": "MTS/MTT toxicity assay in the absence of PBMC, A431", "assay_type": "cell-based", "description": "as §2, §3"}, "PBMC": {"system": "PBMC", "experiment": "MTS/MTT toxicity of dynamin inhibitors to PBMC", "assay_type": "cell-based", "conditions": "for toxicity to PBMC: MTS/MTT, single agent", "description": "Dyngo4a (0 and 30 μM) was added at the end of the incubation. 10% Triton was added to A431 cells after 24-hour incubation with PBMCs for cell death control. The ADCC effects were measured by MTS assay. The cell viability was presented as OD values at 490 nm. The average of OD values released from background was subtracted from effector cell controls (A-II) and target/effector tests (A-III).\nas §2, §3"}, "dynamin": {"system": "dynamin", "conditions": "cited from earlier work"}, "KJD cells [10]": {"system": "KJD cells", "experiment": "Immunofluorescence of cetuximab-EGFR trafficking, KJD", "assay_type": "cell-based, human", "conditions": "incubation with Dyngo4a", "description": "FIG. 28 is a photographic and graphical representation of a multi-parametric FACS analysis showing that manipulation of EGFR trafficking with dynamin inhibitors results in improved ADCC in cetuximab-insensitive cells. (A) Immunofluorescence imaging of cetuximab trafficking status in KJD cells. […] 7-AAD was added at the end of the 4-hour assay to label dead cells prior to FACS analysis. (B) Gating strategies used for the assessment of specific target cell death. FITC indicates CFSE while PerCP-Cy5.5 indicates 7-AAD. The dead target cells appear in the upper right quadrant, CFSE painted and 7-AAD positive. (C.1) KJD cell death under different conditions. (C.2) The percentage of specific KJD cell death was calculated. Data shown are an average of 3 experiments+/−SEM by Two-Way ANOVA with Bonferroni post test. ****: P≤0.0001; ***: P≤0.001; **: P≤0.01; *: P≤0.05. ns: no significance.\n(§4) A431 cells were seeded on coverslips in 12-well plates and incubated overnight to reach 80% confluence. […] 30 μM dyngo4a was added at given time points as described in figure legends. The cells were then washed three times in ice cold PBS and fixed in 4% PFA/PBS for 30 minutes, followed by permeabilization in 0.1% TritonX/PBS (PBTX) for 20 minutes. […] The coverslips were mounted on slides in Prolong Gold (Life technologies). Images were acquired using a Zeiss 510 Meta confocal with a 63× objective."}, "A431 cells [11]": {"system": "A431 cells", "experiment": "Cetuximab mediated ADCC MTS assay", "assay_type": "cell-based, human", "conditions": "Dyngo4a 30 μM + cetuximab 60 μg/mL + PBMC, vs cetuximab single treatment", "method": "MTS assays were performed to measure absorbance at 490 nm. The cell viability is presented as the percentage of untreated viable cells. […] (B-I) MTS assays were performed to measure absorbance at 490 nm. (B-II) The target cell viability is presented as the percentage of untreated viable cells and calculated following the formula: % of untreated cells=(experimental OD−PBMC OD)/(A431 maximum OD−medium OD)×100%\nTarget cells (A431, number=2,500 per well) were seeded in 96-well round bottom plates and allowed to settle down for 2 hours. […] After 24 hours incubation, 20 μL MTS reagent was added into each well and incubated at 37° C. in 5% CO2 for 2 hours. The optical density (OD value) was read at 490 nm by a microplate spectrophotometer."}, "A431 cells [12]": {"system": "A431 cells", "experiment": "Immunofluorescence of cetuximab-EGFR internalization, A431", "assay_type": "cell-based, human", "conditions": "4-hour time-course, Dyngo4a added", "description": "as §4"}, "[13]": {"conditions": "A431, dynasore 0, 60, 100 μM, 0.5 hours"}}, "note": "Entries after “also recorded” stand apart in the source; their conditions may differ. Like-named read-outs stand apart in the source and are kept apart here."}
{"smiles": "O=C(N/N=C/c1ccc(O)c(O)c1)c1cc2ccccc2cc1O", "note": "[Dynasore, 3-hydroxynaphthalene-2-carboxylic acid (3,4-dihydroxybenzylidene) hydrazide]", "values": [{"measurement": "ligand-induced EGFR endocytosis", "setting": "[1]", "value": "successfully functioned as an endocytosis inhibitor"}, {"measurement": "cell morphology after 24 hours dynasore", "setting": "A431 cells [2]", "value": "cellular nuclear condensation"}, {"measurement": "IC50", "setting": "HeLa cells [3]", "value": "~15", "unit": "µM"}, {"measurement": "cell morphology after 24 hours dynasore", "setting": "HeLa cells [4]", "value": "appeared apoptotic or to have cytokinetic defects"}, {"measurement": "plasma membrane levels of MHCI", "setting": "A431 cells [5]; A431, EGF stimulation coupled with dynasore inhibition", "value": "no longer detectable"}, {"measurement": "MHCI signal", "setting": "A431 cells [5]; [13]", "value": "increasing MHCI signal"}, {"measurement": "MHCII signal", "setting": "A431 cells [5]; [13]", "value": "decrease in MHCII signal"}]}
{"smiles": "CCCCCCCCCCCCNc1cc(C)nc(NCCN(C)C)n1", "note": "[Pyrimidyn-7]", "values": [{"measurement": "effect of dynamin inhibitor on cetuximab-dependent ADCC of A431 cells", "setting": "A431 cells [6]", "value": "improve cetuximab-dependent ADCC"}, {"measurement": "cell death by ADCC in the absence of cetuximab", "setting": "KJD cells [7]; KJD cells (FIG. 30C), inhibitor only", "value": "Some increase in cell death"}, {"measurement": "effect of dynamin inhibitor on cetuximab-dependent ADCC of KJD cells", "setting": "KJD cells [7]; FACS", "value": "improve cetuximab-dependent ADCC"}, {"measurement": "toxicity to KJD cells", "setting": "KJD cells [8]", "value": "showed single agent toxicity; also recorded: significant death of KJD cells"}, {"measurement": "toxicity to A431 cells", "setting": "A431 cells [9]; MTS/MTT, absence of PBMC/ADCC, single agent or with cetuximab", "value": "showed single agent toxicity; also recorded: significant death of A431 cells"}, {"measurement": "toxicity to PBMC", "setting": "PBMC", "value": "showed single agent toxicity; also recorded: shows toxicity"}]}
{"smiles": "N#C/C(=C\\c1ccc(O)c(O)c1)C(=O)NCCCNC(=O)/C(C#N)=C/c1ccc(O)c(O)c1", "note": "[Bis-T-22, 2-cyano-N-{3-[2-cyano-3-(3,4-dihydroxyphenyl)-acryloylamino]-propyl}-3-(3-,4-dihydroxyphenyl)-acrylamide]", "values": [{"measurement": "basal dynamin GTPase activity", "setting": "dynamin; absence of PS liposomes, dynamin rings", "value": "stimulates basal dynamin GTPase activity"}, {"measurement": "inhibition of helical dynamin", "setting": "dynamin; dynamin activated by phosphatidylserine (PS) liposomes", "value": "potent in vitro inhibitor of dynamin"}]}
{"smiles": "O=C(N/N=C/c1cc(O)c(O)cc1O)c1cc2ccccc2cc1O", "note": "[Dyngo-4a]", "values": [{"measurement": "effect of Dyngo4a on Herceptin-dependent ADCC of A431 cells", "setting": "A431 cells [6]; Dyngo4a + Herceptin + PBMC", "value": "enhance both cetuximab-dependent and Herceptin-dependent ADCC"}, {"measurement": "effect of dynamin inhibitor on cetuximab-dependent ADCC of A431 cells", "setting": "A431 cells [6]", "value": "increased level of cetuximab-induced ADCC; also recorded: improve cetuximab-dependent ADCC; also recorded: enhance both cetuximab-dependent and Herceptin-dependent ADCC"}, {"measurement": "cetuximab-induced ADCC with Dyngo4a, KJD cell killing", "setting": "KJD cells [7]; Dyngo4a 30 μM + cetuximab 60 μg/mL + PBMC, 4 hours", "value": "greater than 40%"}, {"measurement": "effect of Dyngo4a on Herceptin-dependent ADCC of KJD cells", "setting": "KJD cells [7]; Dyngo4a + Herceptin + PBMC, FACS", "value": "enhance Herceptin-dependent ADCC of KJD cells even more so"}, {"measurement": "tumor cell killing by inhibitor alone", "setting": "KJD cells [7]; Dyngo4a alone, without cetuximab", "value": "did not kill tumor cells"}, {"measurement": "effect of dynamin inhibitor on cetuximab-dependent ADCC of KJD cells", "setting": "KJD cells [7]; FACS", "value": "improve cetuximab-dependent ADCC; also recorded: enhance both cetuximab-dependent and Herceptin-dependent ADCC"}, {"measurement": "plasma membrane expression of EGFR", "setting": "KJD cells [10]", "value": "increased the plasma membrane expression of EGFR"}, {"measurement": "ligand-induced EGFR endocytosis", "setting": "[1]", "value": "has an inhibitory effect on the ligand-induced EGFR endocytosis"}, {"measurement": "toxicity to KJD cells", "setting": "KJD cells [8]", "value": "no toxicity as a single agent; also recorded: no significant toxicity on KJD cells"}, {"measurement": "cetuximab mediated ADCC in presence of dynamin inhibitor (cell viability, MTS)", "setting": "A431 cells [11]", "value": "cells lost more viability"}, {"measurement": "toxicity to A431 cells", "setting": "A431 cells [9]", "value": "no toxicity as a single agent"}, {"measurement": "toxicity to A431 cells", "setting": "A431 cells [9]; human", "value": "no significant toxicity on A431 cells"}, {"measurement": "surface and internalized levels of cetuximab", "setting": "A431 cells [12]", "value": "increases surface levels of cetuximab and decreases internalized levels"}, {"measurement": "cell viability of PBMCs (effector cells)", "setting": "PBMC; Dyngo4a alone and with cetuximab, MTS, vs negative and 10% Triton controls", "value": "did not cause large cell viability reduction in PBMCs"}, {"measurement": "toxicity to PBMC", "setting": "PBMC", "value": "no toxicity as a single agent; also recorded: no significant toxicity"}]}
